Results reported in PubChem BioAssay (NCI).
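Each compound was tested at five concentrations against cells in 96-well plates for 48 hours. Here, GI50 denotes the concentration required for 50% inhibition of growth. The concentration for full growth arrest is given as TGI.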

How the values were obtained:
Experiment in all cases: NCI anticancer screen, dose series, 48 h
[1] = test system: MALME-3M melanoma
[2] = test system: HOP-92 NSCLC
[3] = test system: M14 melanoma
[4] = test system: A498 renal
[5] = test system: SK-OV-3 ovarian
[6] = test system: 786-0 renal
[7] = test system: HCT-15 colon
[8] = test system: OVCAR-8 ovarian
[9] = test system: MDA-MB-231 breast
[10] = test system: HOP-62 NSCLC
[11] = test system: CAKI-1 renal
[12] = test system: SK-MEL-28 melanoma
[13] = test system: A549 NSCLC
[14] = test system: SF-295 CNS
[15] = test system: SW-620 colon
[16] = test system: TK-10 renal
[17] = test system: SK-MEL-5 melanoma
[18] = test system: PC-3 prostate
[19] = test system: EKVX NSCLC
[20] = test system: OVCAR-4 ovarian
[21] = test system: CCRF-CEM leukemia
[22] = test system: MDA-MB-435
[23] = test system: ACHN renal
[24] = test system: MOLT-4 leukemia
[25] = test system: SK-MEL-2 melanoma
[26] = test system: SR leukemia
[27] = test system: SN12C renal
[28] = test system: LOX IMVI melanoma
[29] = test system: HT29 colon
[30] = test system: HCC-2998 colon
[31] = test system: NCI-H522 lung
[32] = test system: MDA-MB-468 breast
[33] = test system: OVCAR-5 ovarian
[34] = test system: HL-60(TB) leukemia
[35] = test system: HCT-116 colon
[36] = test system: SF-539 CNS
[37] = test system: UACC-62 melanoma
[38] = test system: NCI-H23 lung
[39] = test system: COLO 205 colon
[40] = test system: KM12 colon
[41] = test system: DU-145 prostate
[42] = test system: U251 CNS
[43] = test system: NCI-H460 lung
[44] = test system: RPMI-8226 leukemia
[45] = test system: UACC-257 melanoma
[46] = test system: NCI-H226 lung
[47] = test system: UO-31 renal
[48] = test system: NCI/ADR-RES ovarian
[49] = test system: SF-268 CNS
[50] = test system: HS 578T breast
[51] = test system: SNB-75 CNS
[52] = test system: OVCAR-3 ovarian
[53] = test system: K-562 leukemia
[54] = test system: RXF 393 renal
[55] = test system: SNB-19 CNS

**Q.** With `COc1cc(-c2ccc3ncnc(N4CCc5ccc(Cl)cc54)c3c2)cnc1Cl` as the compound, how does the GI50 [1] read?
**A.** 4.6 µM

**Q.** What about the TGI [1] of the same compound?
**A.** 43.3 µM

**Q.** And the GI50 [2]?
**A.** 2110 nM

**Q.** And the TGI [2]?
**A.** > 100 µM

**Q.** And the GI50 [3]?
**A.** 3.88 µM

**Q.** What about the TGI [3] of the same compound?
**A.** > 100 µM

**Q.** And the GI50 [4]?
**A.** 1540 nM

**Q.** What about the TGI [4] of the same compound?
**A.** 7.16 µM

**Q.** What about the GI50 [5] of the same compound?
**A.** 3.84 µM

**Q.** And the TGI [5]?
**A.** > 100 µM

**Q.** And the GI50 [6]?
**A.** 3.22 µM

**Q.** What about the TGI [6] of the same compound?
**A.** 27.7 µM

**Q.** What about the GI50 [7] of the same compound?
**A.** 3.17 µM

**Q.** And the TGI [7]?
**A.** > 100 µM

**Q.** What about the GI50 [8] of the same compound?
**A.** 3.64 µM

**Q.** What about the TGI [8] of the same compound?
**A.** > 100 µM

**Q.** What about the GI50 [9] of the same compound?
**A.** 3.94 µM

**Q.** What about the TGI [9] of the same compound?
**A.** 20.8 µM

**Q.** And the GI50 [10]?
**A.** 6.12 µM

**Q.** And the TGI [10]?
**A.** 81.3 µM

**Q.** And the GI50 [11]?
**A.** 1660 nM

**Q.** And the TGI [11]?
**A.** 12.7 µM

**Q.** What about the GI50 [12] of the same compound?
**A.** 3.84 µM

**Q.** And the TGI [12]?
**A.** 46.7 µM

**Q.** What about the GI50 [13] of the same compound?
**A.** 3.03 µM

**Q.** And the TGI [13]?
**A.** > 100 µM

**Q.** What about the GI50 [14] of the same compound?
**A.** 2620 nM

**Q.** What about the TGI [14] of the same compound?
**A.** 24.6 µM

**Q.** What about the GI50 [15] of the same compound?
**A.** 3.06 µM

**Q.** And the TGI [15]?
**A.** > 100 µM

**Q.** What about the GI50 [16] of the same compound?
**A.** 2120 nM

**Q.** And the TGI [16]?
**A.** 7.87 µM

**Q.** And the GI50 [17]?
**A.** 2150 nM

**Q.** What about the TGI [17] of the same compound?
**A.** 9.36 µM

**Q.** What about the GI50 [18] of the same compound?
**A.** 2520 nM

**Q.** What about the TGI [18] of the same compound?
**A.** > 100 µM

**Q.** What about the GI50 [19] of the same compound?
**A.** 1940 nM

**Q.** What about the TGI [19] of the same compound?
**A.** > 100 µM

**Q.** And the GI50 [20]?
**A.** 3.12 µM

**Q.** And the TGI [20]?
**A.** 95.5 µM

**Q.** And the GI50 [21]?
**A.** 5.7 µM

**Q.** And the TGI [21]?
**A.** > 100 µM

**Q.** What about the GI50 [22] of the same compound?
**A.** 3.32 µM

**Q.** And the TGI [22]?
**A.** > 100 µM

**Q.** And the GI50 [23]?
**A.** 2400 nM

**Q.** What about the TGI [23] of the same compound?
**A.** 14.4 µM

**Q.** And the GI50 [24]?
**A.** 3.36 µM

**Q.** What about the TGI [24] of the same compound?
**A.** > 100 µM

**Q.** And the GI50 [25]?
**A.** 5.12 µM

**Q.** What about the TGI [25] of the same compound?
**A.** > 100 µM

**Q.** What about the GI50 [26] of the same compound?
**A.** 4.08 µM

**Q.** And the TGI [26]?
**A.** > 100 µM

**Q.** And the GI50 [27]?
**A.** 3.34 µM

**Q.** And the TGI [27]?
**A.** > 100 µM

**Q.** What about the GI50 [28] of the same compound?
**A.** 2970 nM

**Q.** What about the TGI [28] of the same compound?
**A.** 29.5 µM

**Q.** What about the GI50 [29] of the same compound?
**A.** 2880 nM

**Q.** What about the TGI [29] of the same compound?
**A.** 16.4 µM

**Q.** And the GI50 [30]?
**A.** 3.46 µM

**Q.** What about the TGI [30] of the same compound?
**A.** > 100 µM

**Q.** And the GI50 [31]?
**A.** 2120 nM

**Q.** What about the TGI [31] of the same compound?
**A.** 10.1 µM

**Q.** What about the GI50 [32] of the same compound?
**A.** 1260 nM

**Q.** And the TGI [32]?
**A.** 4.47 µM

**Q.** And the GI50 [33]?
**A.** 3.29 µM

**Q.** And the TGI [33]?
**A.** > 100 µM

**Q.** What about the GI50 [34] of the same compound?
**A.** 2100 nM

**Q.** And the TGI [34]?
**A.** 9.97 µM

**Q.** And the GI50 [35]?
**A.** 2890 nM

**Q.** And the TGI [35]?
**A.** > 100 µM

**Q.** What about the GI50 [36] of the same compound?
**A.** 3.06 µM

**Q.** What about the TGI [36] of the same compound?
**A.** 11.6 µM

**Q.** What about the GI50 [37] of the same compound?
**A.** 2250 nM

**Q.** And the TGI [37]?
**A.** > 100 µM

**Q.** And the GI50 [38]?
**A.** 2910 nM

**Q.** And the TGI [38]?
**A.** > 100 µM

**Q.** What about the GI50 [39] of the same compound?
**A.** 4.21 µM

**Q.** What about the TGI [39] of the same compound?
**A.** > 100 µM

**Q.** What about the GI50 [40] of the same compound?
**A.** 3.99 µM

**Q.** What about the TGI [40] of the same compound?
**A.** > 100 µM

**Q.** What about the GI50 [41] of the same compound?
**A.** 3.21 µM

**Q.** And the TGI [41]?
**A.** > 100 µM

**Q.** What about the GI50 [42] of the same compound?
**A.** 4.71 µM

**Q.** And the TGI [42]?
**A.** > 100 µM

**Q.** What about the GI50 [43] of the same compound?
**A.** 2950 nM

**Q.** And the TGI [43]?
**A.** > 100 µM

**Q.** What about the GI50 [44] of the same compound?
**A.** 4.44 µM

**Q.** What about the TGI [44] of the same compound?
**A.** > 100 µM

**Q.** What about the GI50 [45] of the same compound?
**A.** 6.32 µM

**Q.** What about the TGI [45] of the same compound?
**A.** > 100 µM

**Q.** What about the GI50 [46] of the same compound?
**A.** 2390 nM

**Q.** What about the TGI [46] of the same compound?
**A.** 21.5 µM

**Q.** And the GI50 [47]?
**A.** 1140 nM

**Q.** What about the TGI [47] of the same compound?
**A.** > 100 µM

**Q.** And the GI50 [48]?
**A.** 2230 nM

**Q.** And the TGI [48]?
**A.** > 100 µM

**Q.** What about the GI50 [49] of the same compound?
**A.** 3.29 µM

**Q.** And the TGI [49]?
**A.** > 100 µM

**Q.** And the GI50 [50]?
**A.** 1840 nM

**Q.** What about the TGI [50] of the same compound?
**A.** 7.41 µM

**Q.** And the GI50 [51]?
**A.** 1560 nM

**Q.** What about the TGI [51] of the same compound?
**A.** 7 µM

**Q.** And the GI50 [52]?
**A.** 2490 nM

**Q.** And the TGI [52]?
**A.** > 100 µM

**Q.** And the GI50 [53]?
**A.** 3.83 µM

**Q.** And the TGI [53]?
**A.** > 100 µM

**Q.** And the GI50 [54]?
**A.** 1780 nM

**Q.** And the TGI [54]?
**A.** 6.77 µM

**Q.** And the GI50 [55]?
**A.** 3.78 µM

**Q.** And the TGI [55]?
**A.** 83.6 µM
